Source: patent US5190783A, “Primary amide esters as low calorie fat mimetics” (Nabisco, Inc., priority 1991, dated 1993)

Assay: caloric availability by in vivo animal feeding study (body weight gain)
Parameters: species or system Sprague-Dawley rats
Settings: rats, diet of 50% fort and 21% test compound, 14 days
From the text: This example illustrates how the novel fat mimetics of this invention are screened for caloric availability by a carefully controlled in vivo animal feeding study.
An experimental relationship between total calories ingested and animal body weight gain is established by monitoring the body weight gain associated with consumption of a nutritionally balanced diet containing varying concentrations of a reference substance such as corn oil which has a known caloric availability. Correlations between total calories ingested and body weight gain are excellent (r=0.99).
Caloric availability of a test material is evaluated by substituting a specific weight of the test material for the reference substance and observing the body weight gain. The gain in body weight is equated to a total number of calories using the correlation previously established for the reference data. The estimated number of calories ingested are divided by the weight of test material to give the apparent calories per gram for the test material. Generally speaking, in these bioavailability studies, the degree of perianal pelt soiling correlates with reduced bioavailability.
The test animals are six-week-old male Sprague-Dawley rats obtained from the Portage, Michigan facility of the Charles River Laboratories, Inc. After acclimation for 15 days, the test duration is 14 days. […]

SMILES: CCCCCCCC/C=C\CCCCCCCC(=O)NCC(COC(=O)CCCCCCC/C=C\CCCCCCCC)OC(=O)CCCCCCC/C=C\CCCCCCCC (stereo not shown) [Example 2, 2,3-s(oleyoyloxy)propyl oleamide]
- calories upon being metabolized (apparent calories per gram): about 3.3 kcal/gram
